No end group written: not given here.
Assays:
pancreas = details: cited from earlier work
[1] = system: HM dog model (pacing-induced heart failure); test: Paced dog model of hibernating myocardium: 48 h i.v. infusion, plasma catecholamines and hemodynamics; format: in vivo, Beagle dogs; details: for LV contractility (dP/dt) restored to: Dog A (FIG. 1); for LV ejection fraction (LVEF) improved to: Dog A (FIG. 2); for LV wall thickening: Dog A (FIG. 3); for Cardiac output (CO): Dog A (FIG. 4); for CBF (coronary blood flow) / LVEDP (LV end-diastolic pressure) / LVP (left ventricular pressure) / MVO2 (myocardial oxygen consumption) / dP/dt (left ventricular contractility) / NE (plasma norepinepherine): GLP-1 group
Text: The “paced dog” model, used in the Example below, provides a system to study NM, because the exertion of the heart exceeds the heart's ability to respond, which creates an energy-limited situation. Other suitable animal models are available to study chronically dysfunctional viable myocardium, in dogs and pigs, for example, which allow laboratory study of therapeutic regimens. […] Canty a al., Am. J. Physiol, 277; H417-H422 (1999). Similar animal models in diabetic dogs, mice and rats are available for the study of DCM. Bell (1995); Fein (1990).
Beagle dogs were fitted with telemetry devices that permit tong-term ambulatory data collection in conscious animals. These devices measured LV pressure, myocardial oxygen consumption (MVO2, an expression of myocardial efficiency), coronary flow (CBF), and cardiac output (CO). The dogs were “paced,” such that heart rate was forced up to about 240 beats per minute, for 3-4 weeks, which induces moderate HM in a predictable manner. This HM dog model is an accepted model for assessing the effectiveness of treatments for HM. Kiuchi et al., “Myocardial beta-adrenergic receptor function during the development of pacing-induced heart failure.” J. Clin. Invest. 91: 907-914 (1993).
During the treatment period, “pacing” was discontinued. Plasma catecholamines were assessed before and after infusion, along with LV pressures, coronary and systemic hemodynamics, and MVO2.

[2] = 48 h i.v. infusion 1.5 pmol/kg/min, after vs before
[3] = AFTER 48 h i.v. infusion 1.5 pmol/kg/min

Q: With “Glu Gly Thr Phe Thr Ser Asp Val Ser Ser Tyr Leu Glu Gly Gln Ala Ala Lys Glu Phe Ile Ala Trp Lau Val Lys Gly Arg Gly (EGTFTSDVSSYLEGQAAKEFIAWLVKGRG; not fully specified; printed as Glu Gly Thr Phe Thr Ser Asp Val Ser Ser Tyr Leu Glu Gly Gln Ala Ala Lys Glu Phe Ile Ala Trp Lau Val Lys Gly Arg Gly) [SEQ ID NO:5]” as the substance, how does the “stimulation of production or release of insulin from the pancreas” value (pancreas) read?
A: do not stimulate production or release of insulin

Q: With “Glu Gly Thr Phe Thr Ser Asp Val Ser Ser Tyr Leu Glu Gly Gln Ala Ala Lys Glu Phe Ile Ala Trp Leu Val Lys Gly Arg (NH2) (EGTFTSDVSSYLEGQAAKEFIAWLVKGR-NH2) [SEQ ID NO:6]” as the substance, how does the “stimulation of production or release of insulin from the pancreas” value (pancreas) read?
A: do not stimulate production or release of insulin

Q: For rGLP-1 (7-36) amide, which “Effect of treatment on LV end-diastolic pressure (LVEDP), in words” value [1, 2] is on record?
A: significantly decreasing

Q: And the “Effect of treatment on cardiac output (CO), in words” value [1, 2]?
A: significantly (*p<0.05) increased

Q: What about the “Effect of treatment on coronary blood flow (CBF), in words” value [1, 2] of the same substance?
A: significantly (*p<0.05) increased

Q: What about the “Effect of treatment on left ventricular contractility (LV dP/dt), in words” value [1, 2] of the same substance?
A: significantly (*p<0.05) increased

Q: What about the “Effect of treatment on left ventricular pressure (LVP), in words” value [1, 2] of the same substance?
A: significantly (*p<0.05) increased

Q: What about the “Effect of treatment on myocardial oxygen consumption (MVO2), in words” value [1, 2] of the same substance?
A: significantly (*p<0.05) increased

Q: What about the “LV contractility (dP/dt) restored to” value ([1]; 24 hours of treatment, pacing had reduced contractility by 60%) of the same substance?
A: 80 % of baseline

Q: What about the “LV contractility (dP/dt) restored to” value ([1]; 48 hours of treatment) of the same substance?
A: 90 % of baseline

Q: And the “LV ejection fraction (LVEF) improved to” value ([1]; 24 hours of treatment, pacing had reduced LVEF by 40%)?
A: 88 % of the baseline value

Q: What about the “LV ejection fraction (LVEF) improved to” value ([1]; 48 hours of treatment) of the same substance?
A: 95 % of the baseline value

Q: What about the LV wall thickening ([1]; 24 hours of treatment, pacing had reduced wall thickening by 20%) of the same substance?
A: recovered

Q: What about the LV wall thickening ([1]; 48 hours of treatment) of the same substance?
A: 147 % of the baseline value

Q: What about the “Cardiac output (CO)” value ([1]; 24 hours of treatment, pacing had reduced CO by 30%) of the same substance?
A: restored to baseline levels

Q: What about the “Cardiac output (CO)” value ([1]; 48 hours of treatment) of the same substance?
A: 116 % of baseline

Q: And the “CBF (coronary blood flow)” value [1, 3]?
A: 37 ± 3 mL/min

Q: And the “LVEDP (LV end-diastolic pressure)” value [1, 3]?
A: 15 ± 1 mm Hg

Q: And the “LVP (left ventricular pressure)” value [1, 3]?
A: 108 ± 2 mm Hg

Q: And the “MVO2 (myocardial oxygen consumption)” value [1, 3]?
A: 297 ± 16 ml O2/min

Q: What about the “dP/dt (left ventricular contractility)” value [1, 3] of the same substance?
A: 2212 ± 86 mm Hg/s

Q: What about the “NE (plasma norepinepherine)” value ([1]; AFTER 48 h i.v. infusion 1.5 pmol/kg/min, *p<0.05) of the same substance?
A: 1.62 ± 0.11* nmol/ml

Q: What about the “NE (plasma norepinepherine)” value ([1]; AFTER 48 h i.v. infusion 1.5 pmol/kg/min, *p<0.05, listed as CLP-1) of the same substance?
A: 1.62 ± 0.11 nmol/mL

Q: What about the “CBF (coronary blood flow)” value ([1]; BEFORE infusion) of the same substance?
A: 27 ± 1 mL/min

Q: And the “LVEDP (LV end-diastolic pressure)” value ([1]; BEFORE infusion)?
A: 25 ± 1 mm Hg

Q: What about the “LVP (left ventricular pressure)” value ([1]; BEFORE infusion) of the same substance?
A: 98 ± 2 mm Hg

Q: What about the “MVO2 (myocardial oxygen consumption)” value ([1]; BEFORE infusion) of the same substance?
A: 246 ± 18 ml O2/min

Q: What about the “dP/dt (left ventricular contractility)” value ([1]; BEFORE infusion) of the same substance?
A: 1127 ± 86 mm Hg/s

Q: And the “NE (plasma norepinepherine)” value ([1]; BEFORE infusion (after 3-4 weeks pacing), five dogs)?
A: 2.30 ± 0.15 nmol/mL

Q: What about the “NE (plasma norepinepherine)” value ([1]; BEFORE infusion (after 3-4 weeks pacing), five dogs, listed as CLP-1) of the same substance?
A: 2.30 ± 0.15 nmol/mL
